# Experimental data: the supplement of paper PMC10307832
# Tests used:
# Assay in all cases: relative viability (nuclei count vs DMSO), 5 days (fraction); higher = more cells survive
# BAY61-3606 + Navitoclax = compound: COC1=C(C=C(C=C1)C2=CC3=NC=CN3C(=N2)NC4=C(C=CC=N4)C(=O)N)OC [BAY61-3606] + CC1(C)CCC(c2ccc(Cl)cc2)=C(CN2CCN(c3ccc(C(=O)NS(=O)(=O)c4ccc(N[C@H](CCN5CCOCC5)CSc5ccccc5)c(S(=O)(=O)C(F)(F)F)c4)cc3)CC2)C1 [Navitoclax] (partner 0.5 µM)
# Outline: (§1)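 Lung cancer cell lines, seeded in 1536-well plates, were treated the following day by pin tool with a single drug or with five library-drug doses (not always all listed) in √10 steps on top of a fixed anchor-drug dose. Cells were fixed and nuclei stained in one step after 5 days, and nuclei were counted. Relative viability is the nuclei count for treated wells divided by that for vehicle wells, reported as medians of duplicate plates.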
# Doxorubicin + Tozasertib = compound: COc1cccc2c1C(=O)c1c(O)c3c(c(O)c1C2=O)C[C@@](O)(C(=O)CO)C[C@@H]3O[C@H]1C[C@H](N)[C@H](O)[C@H](C)O1 [Doxorubicin] + Cc1cc(Nc2cc(N3CCN(C)CC3)nc(Sc3ccc(NC(=O)C4CC4)cc3)n2)n[nH]1 [Tozasertib] (partner 0.1 µM)
# Outline: as §1
# Doxorubicin = compound: COc1cccc2c1C(=O)c1c(O)c3c(c(O)c1C2=O)C[C@@](O)(C(=O)CO)C[C@@H]3O[C@H]1C[C@H](N)[C@H](O)[C@H](C)O1 [Doxorubicin]
# Outline: (§2)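 Nuclei counted with MetaXpress define viability as the ratio of treated to vehicle wells, given as a median across plates. The lung cancer cell lines were in 1536-well plates, pinned with five √10-spaced library-drug doses and imaged at 4× after 5 days and Hoechst staining. Plates passed with control CV below 25% and at least one doubling.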
# BAY61-3606 = compound: COC1=C(C=C(C=C1)C2=CC3=NC=CN3C(=N2)NC4=C(C=CC=N4)C(=O)N)OC [BAY61-3606]
# Outline: as §2
cell line,measurement,setting,value
UMC-11,relative viability,BAY61-3606 + Navitoclax; first compound 0.02 µM,0.339
same,relative viability,BAY61-3606 + Navitoclax; first compound 0.06325 µM,0.324
same,relative viability,BAY61-3606 + Navitoclax; first compound 0.2 µM,0.309
same,relative viability,BAY61-3606 + Navitoclax; first compound 0.6325 µM,0.344
same,relative viability,BAY61-3606 + Navitoclax; first compound 2 µM,0.164
same,relative viability,Doxorubicin + Tozasertib; first compound 0.001 µM,0.22
same,relative viability,Doxorubicin + Tozasertib; first compound 0.003162 µM,0.215
same,relative viability,Doxorubicin + Tozasertib; first compound 0.01 µM,0.209
same,relative viability,Doxorubicin + Tozasertib; first compound 0.03162 µM,0.21
same,relative viability,Doxorubicin + Tozasertib; first compound 0.1 µM,0.208
same,relative viability,Doxorubicin; 0.001 µM,0.974
same,relative viability,Doxorubicin; 0.003162 µM,1.06
same,relative viability,Doxorubicin; 0.01 µM,0.913
same,relative viability,Doxorubicin; 0.03162 µM,0.692
same,relative viability,Doxorubicin; 0.1 µM,0.715
same,relative viability,BAY61-3606; 0.02 µM,1.1
same,relative viability,BAY61-3606; 0.06325 µM,1.05
same,relative viability,BAY61-3606; 0.2 µM,0.955
same,relative viability,BAY61-3606; 0.6325 µM,1.06
same,relative viability,BAY61-3606; 2 µM,0.991
